# Assay results as given in US20260125382A1, “COMPOUNDS FOR INHIBITING OR DEGRADING CDK2 AND/OR CDK9 AND MEDICINAL USE THEREOF” (KOREA RESEARCH INSTITUTE OF CHEMICAL TECHNOLOGY, priority 2022, published 2026).
# Assays:
# CDK9 = target: T1, CDK9 (Homo sapiens, UniProt P50750); experiment: CDK protein degradation activity (Western blotting), CDK9; type: cell-based; conditions: MDA-MB-231 cells, 16 hours, Western blot
# T1 construct: endogenous in cells; host or cells: MDA-MB-231
# In short: (§1)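 Breast cancer line MDA-MB-231, 16 h compound treatment (100 nM–10 μM final, three doses). Immunoblot quantification of CDK2/CDK9 versus tubulin, normalized to DMSO control.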
# CDK2 = target: T2, CDK2 (Homo sapiens, UniProt P24941); experiment: CDK protein degradation activity (Western blotting), CDK2; type: cell-based; conditions: MDA-MB-231 cells, 16 hours, Western blot
# T2 construct: endogenous in cells; host or cells: MDA-MB-231
# In short: as §1
# T1 sequence (P50750 whole entry): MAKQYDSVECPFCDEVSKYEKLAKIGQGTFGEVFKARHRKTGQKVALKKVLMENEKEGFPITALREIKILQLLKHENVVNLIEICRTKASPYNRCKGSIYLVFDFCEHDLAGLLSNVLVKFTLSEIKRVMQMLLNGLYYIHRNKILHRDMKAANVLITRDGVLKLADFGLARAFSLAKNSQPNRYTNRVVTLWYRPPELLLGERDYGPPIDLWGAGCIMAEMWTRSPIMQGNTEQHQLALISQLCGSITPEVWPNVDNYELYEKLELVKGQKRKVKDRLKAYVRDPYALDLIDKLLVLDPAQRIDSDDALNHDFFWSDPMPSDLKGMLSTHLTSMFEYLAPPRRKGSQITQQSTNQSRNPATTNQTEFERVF
Structure (SMILES),Enzyme degradation CDK9 (% remaining) @ 0.1 μM (CDK9),Enzyme degradation CDK9 (% remaining) @ 1 μM (CDK9),Enzyme degradation CDK9 (% remaining) @ 10 μM (CDK9),Enzyme degradation CDK2 (% remaining) @ 0.1 μM (CDK2),Enzyme degradation CDK2 (% remaining) @ 1 μM (CDK2),Enzyme degradation CDK2 (% remaining) @ 10 μM (CDK2)
"O=C1CC[C@H](N2C(=O)c3cccc(NCC(=O)N4CCC(CN5CCN(c6ccc(Nc7ncnc8c7ncn8[C@H]7C[C@@H](NC(=O)c8cccc(C(F)(F)F)n8)C7)cc6)CC5)CC4)c3C2=O)C(=O)N1 [Compound 425, N-((1s,3s)-3-(6-((4-(4-((1-((2-(2,6-dioxopiperidin-3-yl)-1,3-dioxoisoindolin-4-yl)glycyl)piperidin-4-yl)methyl)piperazin-1-yl)phenyl)amino)-9H-purin-9-yl)cyclobutyl)-6-(trifluoromethyl)picolinamide]",0/0/0%,0/0/0%,0/0/0%,0/0/0%,0/0/0%,0/0/0%
"O=C1CC[C@@H](c2ccc(OCC(=O)N3CCC(CN4CCN(c5ccc(Nc6ncnc7c6ncn7C6CC(NC(=O)c7cccc(C(F)(F)F)n7)C6)cc5)CC4)CC3)cc2)C(=O)N1 (stereo partly drawn) [Compound 436, N-((1s,3s)-3-(6-((4-(4-((1-(2-(4-(2,6-dioxopiperidin-3-yl)phenoxy)acetyl)piperidin-4-yl)methyl)piperazin-1-yl)phenyl)amino)-9H-purin-9-yl)cyclobutyl)-6-(trifluoromethyl)picolinamide]",10/10/10%,10/10/10%,10/10/10%,30/30/30%,30/30/30%,30/30/30%
"Cc1cccc(C(=O)NC2CC(n3cnc4c(NCc5cccc(N6CCN(CC7CCN(C(=O)COc8ccc9c(c8)C(=O)N([C@H]8CCC(=O)NC8=O)C9=O)CC7)CC6)c5)ncnc43)C2)n1 (stereo partly drawn) [Compound 133, N-((1s,3s)-3-(6-((3-(4-((1-(2-((2-(2,6-dioxopiperidin-3-yl)-1,3-dioxoisoindolin-5-yl)oxy)acetyl)piperidin-4-yl)methyl)piperazin-1-yl)benzyl)amino)-9H-purin-9-yl)cyclobutyl)-6-methylpicolinamide]",80%,0%,0%,90%,70%,80%
"Cc1cccc(C(=O)N[C@H]2C[C@@H](n3cnc4c(Nc5ccc(N6CCN(CC7CCN(c8ccc9c(c8)C(=O)N([C@H]8CCC(=O)NC8=O)C9=O)CC7)CC6)cc5)ncnc43)C2)n1 [Compound 88, N-((1s,3s)-3-(6-((4-(4-((1-(2-(2,6-dioxopiperidin-3-yl)-1,3-dioxoisoindolin-5-yl)piperidin-4-yl)methyl)piperazin-1-yl)phenyl)amino)-9H-purin-9-yl)cyclobutyl)-6-methylpicolinamide]",0/0/0%,0/0/0%,0/0/0%,20/20/20%,20/20/20%,20/20/20%
"O=C1CC[C@H](N2C(=O)c3ccc(N4CCC(C(=O)N5CCC(CN6CCC(CCNc7ncnc8c7ncn8[C@H]7C[C@@H](NC(=O)Cc8ccccc8)C7)CC6)CC5)CC4)cc3C2=O)C(=O)N1 [Compound 421, N-((1s,3s)-3-(6-((2-(1-((1-(1-(2-(2,6-dioxopiperidin-3-yl)-1,3-dioxoisoindolin-5-yl)piperidin-4-carbonyl)piperidin-4-yl)methyl)piperidin-4-yl)ethyl)amino)-9H-purin-9-yl)cyclobutyl)-2-phenylacetamide]",0/0/0%,0/0/0%,0/0/0%,60/60/60%,60/60/60%,60/60/60%
"Cc1cccc(C(=O)N[C@H]2C[C@@H](n3cnc4c(Nc5ccc(N6CCN(CCC7CCN(C(=O)COc8ccc([C@@H]9CCC(=O)NC9=O)cc8)CC7)CC6)cc5)ncnc43)C2)n1 [Compound 444, N-((1s,3s)-3-(6-((4-(4-(2-(1-(2-(4-(2,6-dioxopiperidin-3-yl)phenoxy)acetyl)piperidin-4-yl)ethyl)piperazin-1-yl)phenyl)amino)-9H-purin-9-yl)cyclobutyl)-6-methylpicolinamide]",0/0/0%,0/0/0%,0/0/0%,30/30/30%,30/30/30%,30/30/30%
"O=C1CC[C@H](N2C(=O)c3ccc(NCC(=O)N4CCC5(CC4)CC(N4CCN(c6ccc(Nc7ncnc8c7ncn8[C@H]7C[C@@H](NC(=O)Cc8ccccc8)C7)cc6)CC4)C5)cc3C2=O)C(=O)N1 [Compound 207, N-((1s,3s)-3-(6-((4-(4-(7-((2-(2,6-dioxopiperidin-3-yl)-1,3-dioxoisoindolin-5-yl)glycyl)-7-azaspiro[3.5]nonan-2-yl)piperazin-1-yl)phenyl)amino)-9H-purin-9-yl)cyclobutyl)-2-phenylacetamide]",0/0/0%,0/0/0%,0/0/0%,50%,70%,50%
"Cc1cccc(C(=O)NC2CC(n3cnc4c(Nc5ccc(N6CCN(C(=O)COc7ccc8c(c7)C(=O)N([C@H]7CCC(=O)NC7=O)C8=O)CC6)cc5)ncnc43)C2)n1 (stereo partly drawn) [Compound 84, N-((1s,3s)-3-(6-((4-(4-(2-((2-(2,6-dioxopiperidin-3-yl)-1,3-dioxoisoindolin-5-yl)oxy)acetyl)piperazin-1-yl)phenyl)amino)-9H-purin-9-yl)cyclobutyl)-6-methylpicolinamide]",70%,30%,10%,50%,30%,20%
"O=C1CC[C@H](N2C(=O)c3cccc(N4CCC(CCCN5CCN(c6ccc(Nc7ncnc8c7ncn8[C@H]7C[C@@H](NC(=O)Cc8ccccc8)C7)cc6)CC5)CC4)c3C2=O)C(=O)N1 [Compound 261, N-((1s,3s)-3-(6-((4-(4-(3-(1-(2-(2,6-dioxopiperidin-3-yl)-1,3-dioxoisoindolin-4-yl)piperidin-4-yl)propyl)piperazin-1-yl)phenyl)amino)-9H-purin-9-yl)cyclobutyl)-2-phenylacetamide]",60%,30%,20%,70%,90%,100%
"Cc1cccc(C(=O)N[C@H]2C[C@@H](n3cnc4c(NC5CCN(CCCN6CCN(c7ccc8c(c7)C(=O)N([C@H]7CCC(=O)NC7=O)C8=O)CC6)CC5)ncnc43)C2)n1 (racemic) [Compound 41, N-((1s,3s)-3-(6-((1-(3-(4-(2-(2,6-dioxopiperidin-3-yl)-1,3-dioxoisoindolin-5-yl)piperazin-1-yl)propyl)piperidin-4-yl)amino)-9H-purin-9-yl)cyclobutyl)-6-methylpicolinamide]",0/0/0%,0/0/0%,0/0/0%,60%,60%,70%
"O=C1CCC(N2C(=O)c3ccc(N4CCC(C(=O)N5CCC(CN6CCN(c7ccc(Nc8ncnc9c8ncn9[C@H]8C[C@@H](NC(=O)c9cccc(Cl)n9)C8)cc7)CC6)CC5)CC4)cc3C2=O)C(=O)N1 (stereo partly drawn) [Compound 452, 6-chloro-N-((1s,3s)-3-(6-((4-(4-((1-(1-(2-(2,6-dioxopiperidin-3-yl)-1,3-dioxoisoindolin-5-yl)piperidin-4-carbonyl)piperidin-4-yl)methyl)piperazin-1-yl)phenyl)amino)-9H-purin-9-yl)cyclobutyl)picolinamide]",0/0/0%,0/0/0%,0/0/0%,30/30/30%,30/30/30%,30/30/30%
"Cc1cccc(C(=O)N[C@H]2C[C@@H](n3cnc4c(Nc5ccc(N6CCN(CC7CCN(c8cc9c(cc8F)C(=O)N([C@H]8CCC(=O)NC8=O)C9=O)CC7)CC6)cc5)ncnc43)C2)n1 [Compound 377, N-((1s,3s)-3-(6-((4-(4-((1-(2-(2,6-dioxopiperidin-3-yl)-6-fluoro-1,3-dioxoisoindolin-5-yl)piperidin-4-yl)methyl)piperazin-1-yl)phenyl)amino)-9H-purin-9-yl)cyclobutyl)-6-methylpicolinamide]",0/0/0%,0/0/0%,0/0/0%,20%,10%,10%
